# Measurements reported in patent publication US8580496B2, “Method and kit for the detection of genes associated with PIK3CA mutation and involved in PI3K/AKT pathway activation in the ER-postitive and HER2-positive subtypes with clinical implications” (Universite Libre de Bruxelles, priority 2008, dated 2013).
# Columns and labels:
# breast cancer patients = assay: Clinical outcome of breast cancer patients treated with tamoxifen, by PIK3CA mutated signature; assay type: in vivo, human
# From the text: Primary breast cancer tumour samples from a previously described “tamoxifen-only treated” data set (Loi, 2007; J. Clin Oncol., 25, 1239-46;) were collected for DNA extraction and mutation analysis. The inventors obtained DNA from 173 samples for PIK3CA mutation sequencing and from 131 samples for AKT1 mutation analysis. The median follow-up of these samples was 9.0 yrs (range: 8.2-9.8 yrs), with 45 (28%) distant metastatic events.
# Part of the tamoxifen-treated dataset has previously been described (Loi, 2007). Another 77 primary breast cancer samples also treated with tamoxifen monotherapy with corresponding Affymetrix gene expression data was also used for the survival analysis.
# The inventors have developed an index called the PIK3CA index that could measure the similarity between the expression profile of any given tumour sample and the PI3K/AKT pathway activation by breast cancers with a PIK3CA mutation.
# Statistical analysis was performed using the SPSS statistical software package (SPSS Inc. Chicago, Ill.) version 13.0. […]
# Breast cancer molecular subgroups were defined using a previously reported method of WIRAPATI ET AL, 2008, Breast cancer […], 10, R65. The gene expression grade index (GGI) was used as a quantification of the expression of proliferation genes (SOTRIOU ET AL, 2006). […]
# [1] = test system: PIK3CA mutant lines including MCF7 and T47D; assay: Sensitivity of breast cancer cell lines to tamoxifen, PIK3CA mutant vs normal lines; assay type: cell-based
compound,measurement,setting,value
CC/C(=C(\c1ccccc1)c1ccc(OCCN(C)C)cc1)c1ccccc1 [tamoxifen],response to tamoxifen,breast cancer patients; Her2 positive BC patients with the mutated PIK3CA signature vs the other Her2 positive patients,responded better
same,benefit from tamoxifen (clinical outcome),"breast cancer patients; luminal B tumours, higher vs lower expression levels of the PIK3CA signature (FIG. 4)",benefit better
same,sensitivity to tamoxifen,[1],more sensitive
